PMC10916623, “Tissue distribution and pharmacokinetics of isoxanthohumol from hops in rodents” (Food Science & Nutrition, 2023)
Marks after values point to notes of the source that are not given here.

Key:
[1] = Tissue distribution after single-gavage administration of IXA to mice; assay type: in vivo, C57/BL6 mice; details: mice; for IXA accumulation, single-ingestion test (at 24 h): single IXA 50 mg/kg BW
Protocol: Six‐week‐old male C57/BL6 mice (initial BW: 19–24 g; Japan SLC, Shizuoka, Japan) were housed in a room maintained at 23–26°C with a 12‐h light–dark cycle. During the 1‐week acclimatization period, they were allowed free access to a commercial diet (Oriental Yeast Co., Tokyo, Japan) and water. Two days before the experiment, they were fed AIN‐93M (Oriental Yeast Co.). Before drug administration, they were fasted for 20 h, but had free access to water. IXA dissolved in 3% hydroxypropyl‐β‐cyclodextrin and 5% ethanol (Fujifilm; Wako Pure Chemical Corp., Osaka, Japan) was named the injection solution and administered (50 mg/kg BW) to mice intragastrically using a gastric feeding tube (AS ONE, Osaka, Japan). Blood, brain, thymus, heart, lung, liver, spleen, pancreas, kidney, and gastrocnemius muscle were collected 0.5, 1, 2, 4, 8, 12, 24, and 48 h after administration. We also set up a control group, and mice in this group were sacrificed just before we started administering IXA at 0 h. At 4 h after administration, mice were allowed free access to AIN‐93 M. Plasma was isolated by centrifugation at 17 × 10^3 m/s^2 (5911, Kubota, Tokyo, Japan) for 5 min at 4°C. All tissues were dissected, weighed, and immediately frozen in liquid nitrogen. All samples were stored at −80°C until analysis.
(§1) Tissue sample deconjugation was performed as described in a previous report with slight modifications (Tanaka et al., [2022]). Tissues were homogenized in phosphate‐buffered saline (pH 7.4), which was nine times the tissue volume. The tissue homogenate was incubated in 50 mmol/L ascorbic acid (one‐fifth the volume of phosphate‐buffered saline) and 1.67 μkat/100 μL of β‐glucuronidase type H‐1 in 0.1 mol/L sodium acetate buffer (pH 4.7, nine times the volume of the sample) for 2 h at 37°C. Then, 2.4 nmol of QTM was added to samples as an internal standard. The supernatant was isolated by centrifugation at 17 × 10^3 m/s^2 (Kubota) for 5 min at 4°C. Then, methanol (Kanto Kagaku, 25183‐2B) was added to the pellets, and they were shaken for 1 min. The methanol layer and pellets were separated by centrifugation at 17 × 10^3 m/s^2 (Kubota, RY1071‐A000) for 5 min at 4°C. Methanol extraction was repeated three times. Finally, methanol extracts were mixed with the supernatant (the composition of the mixture was 30% methanol) and then applied to an Inert Sep C8 (200 mg/3 mL; GL Sciences, Tokyo, Japan; 5010‐61082) cartridge. The cartridge was preconditioned with 6 mL of 2% acetic acid in methanol, and then 9 mL of 2% acetic acid in water. The extracted tissue was passed through the cartridge, and it was washed with 5 mL of 2% acetic acid in 30% methanol aq. The flavonoids were eluted with 10 mL of 2% acetic acid in methanol.
The plasma and tissue extracts were evaporated using a Centrifugal Evaporator (EYERA, Tokyo, Japan, CVE‐3000). The samples were stored at −80°C until the next day. Then, the samples were dissolved in 120 μL of a mobile phase solution and divided into two test tubes. The first sample was injected into the HPLC with an ultraviolet detection system (Shimadzu, Kyoto, Japan).
IXA and 8‐PN concentrations were determined by their respective standard curves using an internal standard method. A Cadenza 3‐μm CD‐C18 HPLC column (CD005, 150 × 4.6 mm; Imtakt Corporation, Kyoto, Japan) was equipped for HPLC (λ = 295 nm). The mobile phase consisted of methanol:water:acetic acid (60:35:5, v/v/v). The flow rate was set at 1.0 mL/min. […] Because clear peaks over 4.5 pmol/sample were detected for IXA and 8‐PN by visual evaluation, we determined that these concentrations were the peak limit of detections for each flavonoid. We applied calibration curves in the IXA/QTM concentration ratio range of 0.007–35.1 (R ^2 = .9955).

[2] = Liver accumulation after intragastric IXA administration at various concentrations to rats for 28 days; assay type: in vivo, Sprague–Dawley rats; details: rat liver; IXA 112.5–1500 mg/kg BW once a day for 28 days; Pearson
Protocol: Six‐week‐old female Sprague–Dawley rats (Charles River Laboratories Japan, Inc., Yokohama, Japan) were housed in a room maintained at 20–26°C on a 12‐h light–dark cycle. The initial BW of rats was 176–179 g. They were allowed free access to a commercial diet (CRF‐1) and water during the experiment. IXA dissolved in injection solution was administered intragastrically to rats (112.5, 225, 360, 450, and 1500 mg/kg BW) daily for 28 days using a gastric feeding tube. We also set up a control group to which the injection solution was administered. The final BW of rats was 231–241 g. The liver was collected the day after the last administration. The rats were fasted for 16–24 h before they were euthanized, but they had free access to water. Liver samples were stored at −80°C until analysis.
as §1
The plasma and tissue extracts were evaporated using a Centrifugal Evaporator (EYERA, Tokyo, Japan, CVE‐3000). The samples were stored at −80°C until the next day. Then, the samples were dissolved in 120 μL of a mobile phase solution and divided into two test tubes. […]
IXA and 8‐PN concentrations were determined by their respective standard curves using an internal standard method. […] Because clear peaks over 4.5 pmol/sample were detected for IXA and 8‐PN by visual evaluation, we determined that these concentrations were the peak limit of detections for each flavonoid. […]

[3] = kidney, single oral IXA 50 mg/kg BW
[4] = lung, single oral IXA 50 mg/kg BW

IXA detection in the brain ([1]; brain, single oral IXA 50 mg/kg BW, data not shown): not detected
time of second peak of IXA ([1]; heart, single oral IXA 50 mg/kg BW): 4 h
C max IXA ([1]; heart, single oral IXA 50 mg/kg BW, measured at 0.5 h): 3.3 ± 1.0^b,c nmol/g of tissue
IXA accumulation, single-ingestion test (at 24 h) ([1]; kidney): 4.6 ± 0.3 nmol/g of tissue
time of second peak of IXA [1, 3]: 8 h
IXA level at 48 h after ingestion [1, 3]: 2.67 ± 0.41 nmol/g tissue
C max IXA ([1]; kidney, single oral IXA 50 mg/kg BW, measured at 1 h): 25.5 ± 5.3^a,b nmol/g of tissue
IXA accumulation, single-ingestion test (at 24 h) ([1]; liver): 3.2 ± 1.3 nmol/g of tissue
IXA level at 48 h after ingestion ([1]; liver, single oral IXA 50 mg/kg BW): 0.14 ± 0.12 nmol/g tissue
C max IXA ([1]; liver, single oral IXA 50 mg/kg BW, measured at 1 h): 76.2 ± 32.4^a nmol/g of tissue
IXA accumulation, single-ingestion test (at 24 h) ([1]; lung): 1.7 ± 1.5 nmol/g of tissue
time of second peak of IXA [1, 4]: 2 h
IXA level at 48 h after ingestion [1, 4]: 0.05 ± 0.04 nmol/g tissue
C max IXA ([1]; lung, single oral IXA 50 mg/kg BW, measured at 0.5 h): 5.3 ± 3.3^b,c nmol/g of tissue
IXA accumulation, single-ingestion test (at 24 h) ([1]; muscle): 0.1 ± 0.1 nmol/g of tissue
C max IXA ([1]; muscle, single oral IXA 50 mg/kg BW, measured at 0.5 h): 3.4 ± 1.3^b,c nmol/g of tissue
time of second peak of IXA ([1]; pancreas, single oral IXA 50 mg/kg BW): 12 h
C max IXA ([1]; pancreas, single oral IXA 50 mg/kg BW, measured at 0.5 h): 22.4 ± 2.1^b,c nmol/g of tissue
time of second peak of IXA ([1]; skeletal muscle, single oral IXA 50 mg/kg BW): 12 h
IXA accumulation, single-ingestion test (at 24 h) ([1]; spleen): 1.1 ± 1.0 nmol/g of tissue
time of second peak of IXA ([1]; spleen, single oral IXA 50 mg/kg BW): 4 h
C max IXA ([1]; spleen, single oral IXA 50 mg/kg BW, measured at 0.5 h): 6.5 ± 2.2^b,c nmol/g of tissue
IXA accumulation, single-ingestion test (at 24 h) ([1]; thymus): 3.6 ± 3.1 nmol/g of tissue
time of second peak of IXA ([1]; thymus, single oral IXA 50 mg/kg BW): 4 h
C max IXA ([1]; thymus, single oral IXA 50 mg/kg BW, measured at 0.5 h): 6.5 ± 4.1^b,c nmol/g of tissue
correlation coefficient between dose-concentration and accumulation [2]: .813
Substance: 4,7‐dihydroxy‐5‐methoxy‐8‐prenylflavanone [IXA]
